The text below walks through data of paper PMC3606385 (PLoS ONE, 2013).

Molecules are shown by their SMILES. Where “and” joins values, the source holds several entries; their conditions need not be identical. Equal entries are not always repeated. Where two headings read alike, the source gives them in different places.

In test [1] the target is T1, Human 11β-HSD1 (Homo sapiens, UniProt P28845).
T1 construct: expressed in transfected cells; host or cells: CHOP cells (transient, FuGENE)
Nature of the test: 11β-HSD1 assay in intact CHOP cells transfected with human HSD11B1. Type of test: cell-based. The protocol:
(§1) An expression plasmid was constructed to express human 11β-HSD1 (HSD11B1) cDNA in pcDNA I expression vector from its original human HSD11B1 vector (pBluescriptSK+).[15]. The Escherichia coli transformants carrying an insert were selected by colony hybridization, and a clone with the insert in the correct orientation relative to the vector T7 promoter was identified by restriction mapping. All transfections were carried out on 80% confluent cultures in 12-well plates. Aliquots of 1 µg HSD11B1 pcDNA I were transfected into mammalian CHOP cells with the FuGENE Transfection Reagent (Roche) according to manufacturer's protocol. Cells were allowed to grow for 24 hours in media containing 10% fetal bovine serum. Then media were removed and cells were harvested for 11β-HSD1 activity assay.
11β-HSD1 reductase activity was performed in intact cells using endogenous cofactor NADPH as described previously. […] 25×10^3 cells were added to each tube to initiate the reaction and the reaction mixture was incubated for up to 2 hrs, during which the reaction is within the linear range. At the end of reaction, the reaction was stopped by adding 2 ml ice-cold ether. The steroids were extracted, and the organic layer was dried under nitrogen. The steroids were separated chromatographically on thin layer plates in chloroform and methanol (90∶10, v/v), and the radioactivity was measured using a scanning radiometer (System AR2000, Bioscan Inc., Washington, DC) as described previously. The percentage conversion of 11DHC to CORT or cortisone to cortisol was calculated by dividing the radioactive counts identified as 11-OH-steroids by the total counts.
(§2) The IC50 was determined by adding different concentrations of each compound in the 11β-HSD1 or 11β-HSD2 reaction as described. The mode of inhibition was assayed by adding various concentrations of steroid substrates in the presence of an inhibitor as described.

A further test deals with T2, Human 11β-HSD2 (Homo sapiens, UniProt P80365).
T2 construct: tissue Gentest (Woburn, MA); host or cells: human kidney microsomes
T2 sequence (P80365 1-405): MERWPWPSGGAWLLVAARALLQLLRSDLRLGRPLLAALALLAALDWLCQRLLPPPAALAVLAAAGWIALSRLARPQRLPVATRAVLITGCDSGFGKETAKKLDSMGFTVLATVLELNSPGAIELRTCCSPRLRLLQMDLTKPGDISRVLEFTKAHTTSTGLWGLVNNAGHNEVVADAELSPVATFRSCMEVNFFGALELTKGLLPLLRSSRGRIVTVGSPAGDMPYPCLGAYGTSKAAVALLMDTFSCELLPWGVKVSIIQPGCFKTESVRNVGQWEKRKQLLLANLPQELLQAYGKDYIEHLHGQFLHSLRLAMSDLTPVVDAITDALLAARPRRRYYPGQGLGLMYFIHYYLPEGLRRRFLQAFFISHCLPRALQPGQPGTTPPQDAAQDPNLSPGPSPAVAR
Briefly: 11β-HSD2 assay in human kidney microsomes. Type of test: biochemical. As to conditions: human kidney microsomes. As for the experimental part:
The rat and human kidney microsomes were used for 11β-HSD2 sources. 11β-HSD2 activity was performed in the microsome according to a previously described method. In brief, the assay tubes contained 25 nM substrate CORT (for rat) or cortisol (for human), spiked with 30,000 cpm their respective ^3H-11β-hydroxyl steroid, 0.2 mM NAD+ and 0.1 mM DTT in the PBS buffer. 8 (rat) or 20 (human) µg kidney microsomes were added to each tube to initiate the reaction and the reaction mixture was incubated for up to 3 hrs, during which the reaction is within the linear range. The rest procedure was similar to 11β-HSD1 assay. The percentage conversion of CORT to 11DHC or cortisol to cortisone was calculated by dividing the radioactive counts identified as 11keto-steroids by the total counts.
as §2

Test [2] addresses T1, Human 11β-HSD1. Nature of the test: 11β-HSD1 assay in microsomes from CHOP cells transfected with human HSD11B1. Type of test: biochemical. The protocol:
as §1
(§3) The rat testis and liver or human liver microsomes were used for 11β-HSD1 assay. 11β-HSD1 activity was performed in the microsome according to a previously described method. […] 2 µg microsomes were added to each tube to initiate the reaction and the reaction mixture was incubated for up to 2 hrs, during which the reaction is within the linear range. The rest procedure was similar to 11β-HSD1 assay in intact cells.
as §2

Another test deals with T3, Rat 11β-HSD1 (Rattus norvegicus, UniProt P16232).
T3 construct: endogenous in cells; host or cells: primary adult Sprague-Dawley rat Leydig cells
Briefly: 11β-HSD1 assay in adult rat testis microsomes. Type of test: biochemical. As for the experimental part:
Rats were euthanized by CO2, and livers, testes and kidneys were collected. Rat liver, testis and kidney microsomes were prepared as described previously. In brief, rat liver and kidney were homogenized in […] PBS buffer containing 0.25 M sucrose, and nuclei and large cell debris were removed by centrifugation at 1500× g for 10 min. The post-nuclear supernatants were centrifuged twice at 105,000×g, the resultant microsomal pellets were resuspended. Protein contents were measured by Bio-Rad Dye Reagent Concentrate (Cat.#500-0006). Microsomes were used for measurement of 11β-HSD1 and 11β-HSD2 activities.
as §3, §2

The target in test [3] is T4, rat liver microsomal 11β-HSD1 (Rattus norvegicus, UniProt P16232).
T4 construct: Rat liver, testis and kidney microsomes were prepared as described previously; from tissue; host or cells: rat liver microsomes
Nature of the test: Mode of inhibition (Lineweaver-Burk), rat liver microsomal 11β-HSD1. Type of test: biochemical. The following applies: Lineweaver-Burk plot, substrate 11DHC. As for the experimental part:
(§4) The rat testis and liver or human liver microsomes were used for 11β-HSD1 assay. 11β-HSD1 activity was performed in the microsome according to a previously described method. In brief, the assay tubes contained 25 nM substrate 11DHC (for rat) or cortisone (for human), spiked with 30,000 cpm their respective ^3H-11keto-steroid, 0.2 mM NADPH and 5 mM glucose-6-phosphaare in the PBS buffer. 2 µg microsomes were added to each tube to initiate the reaction and the reaction mixture was incubated for up to 2 hrs, during which the reaction is within the linear range. The rest procedure was similar to 11β-HSD1 assay in intact cells.
as §2
(§5) Enzyme data were subjected to nonlinear analysis by GraphPad (Version 5, GraphPad Software Inc., San Diego, CA) for IC50. Lineweaver-Burk plot was used for the mode of inhibition. Data were subjected to analysis by one-way ANOVA followed by Tukey's multiple comparisons testing to identify significant differences between groups when three were calculated. Differences were regarded as significant at P<0.05.
On the technique in general: Liver microsomes are vesicles of endoplasmic reticulum, rich in cytochrome P450 enzymes.

A further test deals with T5, human liver 11β-HSD1 (Homo sapiens, UniProt P28845).
T5 construct: tissue Gentest (Woburn, MA); host or cells: human liver microsomes
Nature of the test: Mode of inhibition, human liver 11β-HSD1. Type of test: biochemical. As to conditions: data not shown. The protocol:
as §4, §2, §5

The subject of the next test is rats. As to conditions: cited from earlier work.
The test system of another test is diabetic rats. As to conditions: normal or high fat diet; cited from earlier work.

T1 sequence (P28845 whole entry): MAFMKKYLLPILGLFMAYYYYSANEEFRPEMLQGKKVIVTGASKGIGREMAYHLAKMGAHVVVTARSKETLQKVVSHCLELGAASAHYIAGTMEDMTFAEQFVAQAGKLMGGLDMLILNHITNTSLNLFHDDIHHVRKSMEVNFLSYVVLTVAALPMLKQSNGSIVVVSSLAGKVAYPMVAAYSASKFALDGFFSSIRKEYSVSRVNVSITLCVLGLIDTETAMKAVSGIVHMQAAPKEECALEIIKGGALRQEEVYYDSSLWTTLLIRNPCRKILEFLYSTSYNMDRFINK
T4 sequence (P16232 whole entry): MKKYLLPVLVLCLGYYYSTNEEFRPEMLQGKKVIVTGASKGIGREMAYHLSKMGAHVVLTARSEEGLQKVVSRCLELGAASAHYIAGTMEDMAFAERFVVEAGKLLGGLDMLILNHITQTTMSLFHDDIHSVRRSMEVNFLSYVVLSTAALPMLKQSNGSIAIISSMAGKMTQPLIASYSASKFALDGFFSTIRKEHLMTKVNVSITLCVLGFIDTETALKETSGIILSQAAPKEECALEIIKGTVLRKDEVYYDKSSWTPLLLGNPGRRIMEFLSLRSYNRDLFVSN
T3 sequence (P16232 whole entry): as above
T5 sequence (P28845 whole entry): as the sequence (P28845 whole entry) above

Usually IC50 stands for the midpoint of a concentration-inhibition curve. On to `COc1cc(/C=C/C(=O)CC(=O)/C=C/c2ccc(O)c(OC)c2)ccc1O` [1 (Curcumin), Curcumin], for which the IC50 on Human 11β-HSD1 [1] (CHOP cells transfected with human HSD11B1, read-out: Human 11β-HSD1 IC50 (nM) in CHOP cells) was 2300 nM; against Human 11β-HSD1 [1] (IC50 human 11β-HSD1 in intact cells, intact CHOP cells transfected with human HSD11B1), 5780 ± 2220 nM; on Human 11β-HSD1 [1] (intact CHOP cells transfected with human HSD11B1, read-out: IC50 human 11β-HSD1 in intact cells), 2290 nM and 2000 to 6000 nM and 2300 nM; at Human 11β-HSD2 (read-out: IC50 (nM) Human 11β-HSD2) it was 14600 nM; on Human 11β-HSD2 (read-out: IC50 human 11β-HSD2), 14600 nM; at Human 11β-HSD1 [2] it was 10.6 ± 7.17 µM. Also, half-maximal inhibition at Rat 11β-HSD1 (IC50) was put at 4.18 ± 0.24 µM. Moreover, the “Mode of inhibition of rat 11β-HSD1” value in test [3] is “competitive inhibitor”. The “Mode of inhibition of human 11β-HSD1” value on human liver 11β-HSD1 is on record as “competitive inhibitor”. For the same molecule, the “Effect on serum and liver cholesterol levels” value in the test on rats is given as “lowered”. The “Effect on serum Tg” value with diabetic rats is given as “remarkably reduced”. Further, in the test on diabetic rats, the “Effect on serum cholesterol” value was “remarkably reduced”.
